The text below walks through data of patent publication EP1277754B1, “IMIDAZOPYRIDINE DERIVATIVES” (YAMANOUCHI PHARMACEUTICAL CO. LTD., priority 2000, dated 2001).

The subject of one assay is A375 cells. As to the kind of experiment: Melanoma cell growth inhibition (Alamar Blue). It is filed as cell-based. The following applies: Homo sapiens, A-375, incubation over 46 hours. As to the method: A375 cells from a melanoma cell line were cultured in DMEM medium (GIBCO) supplemented with 10% fetal bovine serum. A375 cells at 10,000 cells/100µl were added to a 96 well plate which contained 1 µl/well of the test compounds (final concentration of 0.001 ~ 30µM). After incubation for over 46 hours, Alamar Blue reagent was added to the medium (10µl/well). Two hours after the addition, a ratio of fluorescent intensity at an excitation wavelength of 530 nm to that at an emission wavelength of 590 nm was measured to determine the IC50 of the test compounds in the same manner as in the above examples.
Background: Alamar Blue is a resazurin reagent that responds to reducing activity.
Turning to `Cc1ccc([N+](=O)[O-])cc1S(=O)(=O)n1ccc(-c2c(C)nc3ccc(Br)cn23)n1` [Compound 6, 3-(6-Bromo-2-methylimidazo[1,2-a]pyridin-3-yl)-1H-pyrazol-1-yl 2-methyl-5-nitrophenyl sulfone], the IC50 (as a rule, the concentration that gives 50% inhibition) was under 1000 nM. On the same count and under the same terms, for `Cc1ccc([N+](=O)[O-])cc1S(=O)(=O)n1ccc(-c2cnc3ccc(Br)cn23)n1` [Compound 30, 3-(6-bromoimidazo[1,2-a]pyridin-3-yl)-1H-pyrazol-1-yl 2-methyl-5-nitrophenyl sulfone] the value was under 1000 nM. In the case of `Cc1ccc([N+](=O)[O-])cc1S(=O)(=O)N(C)N=Cc1cnc2ccc(Br)cn12` [Compound 43, 2'-[(6-bromoimidazo[1,2-a]pyridin-3-yl)methylidene]-1',2-dimethyl-5-nitrobenzenesulfonohydrazide], the IC50 is under 1000 nM. As for `CCc1ccc([N+](=O)[O-])cc1S(=O)(=O)N(C)N=Cc1cnc2ccc(Br)cn12` [Compound 53, 2'-[(6-bromoimidazo[1,2-a]pyridin-3-yl)methylidene]-2-ethyl-1'-methyl-5-nitrobenzenesulfonohydrazide], the IC50 is under 1000 nM.

For `Cc1ccc(C#N)cc1S(=O)(=O)N(C)N=Cc1cnc2ccc(Br)cn12` [Compound 54, 3-({2-[(6-bromoimidazo[1,2-a]pyridin-3-yl)methylidene]-1-methylhydrazino}sulfonyl)-4-methylbenzonitrile], the IC50 is under 1000 nM. For the molecule `Cc1ccc([N+](=O)[O-])cc1S(=O)(=O)N(C)N=Cc1cnc2ccc(F)cn12` [Compound 57, 2'-[(6-fluoroimidazo[1,2-a]pyridin-3-yl)methylidene]-1',2-dimethyl-5-nitrobenzenesulfonohydrazide], the IC50 is under 1000 nM. For the molecule `CN(N=Cc1cnc2ccc(Cl)cn12)S(=O)(=O)c1cc([N+](=O)[O-])ccc1N` [Compound 59, 2-amino-2'-[(6-chloroimidazo[1,2-a]pyridin-3-yl)methylidene]-1'-methyl-5-nitrobenzenesulfonohydrazide], the IC50 is under 1000 nM. Turning to `CN(N=Cc1cnc2ccc(Cl)cn12)S(=O)(=O)c1cc([N+](=O)[O-])ccc1OCC(F)(F)F` [Compound 60, 2'-[(6-chloroimidazo[1,2-a]pyridin-3-yl)methylidene]-1'-methyl-5-nitro-2-(2,2,2-trifluoroethoxy)benzenesulfonohydrazide], the IC50 was under 1000 nM. Molecule `Cc1ccc([N+](=O)[O-])cc1S(=O)(=O)c1nc(-c2cnc3ccc(Cl)cn23)cs1` [Compound 65, 6-chloro-3-[2-(2-methyl-5-nitrobenzenesulfonyl)thiazol-4-yl]imidazo[1,2-a]pyridine] had an IC50 of under 1000 nM.

As to `Cc1ccc([N+](=O)[O-])cc1S(=O)(=O)N(CCN1CCOCC1)N=Cc1cnc2ccc(Br)cn12` [Compound 77, 6-bromo-3-{[(2-methyl-5-nitrobenzenesulfonyl)(2-morpholinoethyl)hydrazono]methyl}imidazo[1,2-a]pyridine], the IC50 is under 1000 nM. On the same count and under the same terms, for `Cc1ccc([N+](=O)[O-])cc1S(=O)(=O)N(C)N=Cc1cnc2ccc(Cl)cn12` [Compound 88, 6-chloro-3-{[(methyl)(2-methyl-5-nitrobenzenesulfonyl)hydrazono]methyl}imidazo[1,2-a]pyridine] the value was under 1000 nM. Same read-out and setting: for `Cc1ccc([N+](=O)[O-])cc1S(=O)(=O)N(C)N=Cc1cnc2ccc(C#N)cn12` [Compound 93, 3-{[(methyl)(2-methyl-5-nitrobenzenesulfonyl)hydrazono]methyl}imidazo[1,2-a]pyridine-6-carbonitrile] the value was under 1000 nM; for `Cc1ccc(C#N)cc1S(=O)(=O)N(C)N=Cc1cnc2ccc(F)cn12` [Compound 95, 5-cyano-2'-[(6-fluoroimidazo[1,2-a]pyridin-3-yl)methylidene]-1',2-dimethylbenzenesulfonohydrazide], under 1000 nM; for `Cc1ccc(C#N)cc1S(=O)(=O)N(C)N=Cc1cnc2ccc(C#N)cn12` [Compound 96, 5-cyano-2'-[(6-cyanoimidazo[1,2-a]pyridin-3-yl)methylidene]-1',2-dimethylbenzenesulfonohydrazide], under 1000 nM. Still for that read-out and setting: with `CN(N=Cc1cnc2ccc(Cl)cn12)S(=O)(=O)c1cc([N+](=O)[O-])ccc1-n1ccnc1` [Compound 112, 2'-[(6-chloroimidazo[1,2-a]pyridin-3-yl)methylidene]-2-(1H-imidazol-1-yl)-1'-methyl-5-nitrobenzenesulfonohydrazide] the figure was under 1000 nM. In turn, `CN(C)c1ccc([N+](=O)[O-])cc1S(=O)(=O)N(C)N=Cc1cnc2ccc(Cl)cn12` [Compound 113, 2'-[(6-chloroimidazo[1,2-a]pyridin-3-yl)methylidene]-2-dimethylamino-1'-methyl-5-nitrobenzenesulfonohydrazide] showed an IC50 of under 1000 nM.

Staying with this assay, now noted: incubation over 46 hours.
The molecule `Cc1ccc2ncc(C=NN(C)S(=O)(=O)c3cc([N+](=O)[O-])ccc3C)n2c1` [Compound 99, 1'2-dimethyl-2'-[(6-methylimidazo[1,2-a]pyridin-3-yl)methylidene]-5-nitrobenzenesulfonohydrazide] gave an IC50 of under 1000 nM.

Another assay deals with HCT116 cells. As to the kind of experiment: Colon cancer cell growth inhibition (Alamar Blue). It is filed as cell-based. The following applies: incubation over 72 hours, result in words. As to the method:
Test Example 2 Colon cancer cell growth inhibition
HCT116 cells from a colon cancer cell line were cultured in McCoy's 5A medium (GIBCO) supplemented with 10% fetal bovine serum. HCTI 16 cells were inoculated on a 96 well plate (5000 cells/well) followed by overnight incubation. The test compound diluted with the medium was added to the medium in a final concentration of 0.1 to 30µM (final DMSO concentration, 1%). After incubation for over 72 hours, Alamar Blue reagent was added to the medium. Two hours after the addition, a ratio of fluorescent intensity at an excitation wavelength of 530 nm to that at an emission wavelength of 590 nm was measured to determine the IC50.
Consider `Cc1ccc([N+](=O)[O-])cc1S(=O)(=O)n1ccc(-c2c(C)nc3ccc(Br)cn23)n1` [Compound 6, 3-(6-Bromo-2-methylimidazo[1,2-a]pyridin-3-yl)-1H-pyrazol-1-yl 2-methyl-5-nitrophenyl sulfone], for which the “cancer cell growth inhibition activity” value is listed as “good cancer cell growth inhibition activity”.
